This is an account of results in patent US9290501B2, “Methods, assays and compounds for treating bacterial infections by inhibiting methylthioinosine phosphorylase” (Albert Einstein College of Medicine, Inc., priority 2010, dated 2016).

Assay [1] addresses T1, PfPNP (Plasmodium falciparum (isolate 3D7), UniProt Q8I3X4). To be noted: cited from earlier work.
The target of assay [2] is T2, PaMTIP (Pseudomonas aeruginosa (strain ATCC 15692 / DSM 22644 / CIP 104116 / JCM 14847 / LMG 12228 / 1C / PRS 101 / PAO1), UniProt Q9HZK1). The assay is classed as biochemical. To be noted: for fold decreases of Kcat/Km in comparison with those of MTI / kcat/Km: PaMTIP; for Km / kcat: PaMTIP phosphorolysis, 100 mM phosphate, pH 7.4, 25° C. How it is done: Product formation was monitored by conversion of hypoxanthine to uric acid by xanthine oxidase (22). The extinction coefficient of this assay was 12.9 mM^−1cm^−1 at 293 nm. Enzyme activity with adenosine or MTA as substrates was determined by conversion of adenine to 2,8-dihydroxyadenine using the same coupling enzyme (23). Its extinction coefficient at 293 nm was 15.2 mM^−1cm^−1. Reactions were carried out at 25° C. in 1 cm cuvettes, 1 mL volumes of 100 mM Hepes, pH 7.4, 100 mM phosphate, pH 7.4, variable concentrations of nucleoside substrate, 0.5 unit of xanthine oxidase, 5 mM DTT, and appropriate amounts of purified MTIP. Reactions were initiated by addition of enzyme and the initial rates were monitored with a CARY 300 UV-Visable spectrophotometer. Control rates (no PaMTIP) were subtracted from initial rates. Km and kcat values for PaMTIP were obtained by fitting initial rates to the Michaelis-Menten equation using GraFit 5 (Erithacus Software).

For assay [3], the target named is T2, PaMTIP. The assay can be described thus: biochemical. How it is done: Assays for slow-onset inhibitors were carried out by adding 1 nM PaMTIP into reaction mixtures at 25° C. containing 100 mM Hepes, pH 7.4, 100 mM phosphate, pH 7.4, 2 mM MTI, 5 mM DTT, 0.5 unit of xanthine oxidase and variable inhibitor concentration. Inhibitors were present at >10 times the enzyme concentration, required to simplify data analysis (24). Assays for MTA inhibition used 200 μM MTI. Controls having no enzyme and no inhibitor were included in all of the inhibition assays. Inhibition constants were obtained by fitting initial rates with variable inhibitor concentrations to equation (1) using GraFit 5 (Erithacus Software):
[formula] where vi is the initial rate in the presence of inhibitor, vo is the initial rate in the absence of inhibitor, Km is the Michaelis constant for MTI, [S] and [I] are MTI and inhibitor concentrations, respectively, and Ki is the inhibition constant. Slow-onset inhibitors display a second phase of tighter binding after reaching a thermodynamic equilibrium with the enzyme. The equilibrium constant for the second binding phase is indicated as Ki*. This constant was obtained by fitting initial final rates and inhibitor concentrations to equation (1) using GraFit 5 (22).

A further assay addresses PfADA (Plasmodium falciparum (isolate 3D7), UniProt Q8IJA9). The note with it: PfADA deamination; cited from earlier work.
The target of assay [4] is T1, PfPNP. The note with it: read-out: dissociation constants; cited from earlier work.
Setting [5] is: second tighter binding phase of slow-onset inhibition, values ± S.E., read-out: Ki*.
Where [6] appears, read: initial binding phase, 2 mM MTI, 25° C., pH 7.4, values ± S.E., read-out: Ki.

Where “and” joins values, the source holds several entries; their conditions need not be identical. Equal entries are not always repeated. Where two headings read alike, the source gives them in different places.

Take `OC[C@H]1O[C@@H](n2cnc3c(O)ncnc32)[C@H](O)[C@@H]1O` [inosine]: the kcat/Km at PfPNP [1] is 360000 M⁻¹ s⁻¹. At PaMTIP [2], the “fold decreases of Kcat/Km in comparison with those of MTI” value was 300 fold; the kcat/Km worked out at 6300 M⁻¹ s⁻¹; the Km was found to be 90 ± 20 µM; the kcat was 0.57 s⁻¹ and 0.57 ± 0.04 s⁻¹. Moreover, at PaMTIP [2] (Table 2), the kcat/Km is on record as 6 ± 1 × 10^3 M^−1s^−1.

For the compound `CSCC(CO)NCc1c[nH]c2c(=O)[nH]cnc12` (stereo not shown) [MT-SerMe-ImmH], the Ki at PaMTIP [3] (setting [5]) was found to be 96 pM.

For `CSC[C@@]1(O)CN(Cc2c[nH]c3c(=O)[nH]cnc23)C[C@@H]1O` [4′-HO-MT-DADMe-ImmH, (3S,4R)-1-[(9-deazahypoxanthin-9-yl)methyl]-3,4-dihydroxy-4-methylthiomethylpyrrolidine], the “inhibitor potency in words” value against PaMTIP [3] was “nanomolar inhibitor”.

For the compound `CCCSC[C@H]1CN(Cc2c[nH]c3c(=O)[nH]cnc23)C[C@@H]1O` [PrT-DADMe-ImmH], the “fold tighter binding / enhanced potency relative to MT-DADMe-ImmH” value at PaMTIP [3] is 4 fold.

Regarding `O=c1[nH]cnc2c([C@@H]3N[C@H](CSc4ccccc4)[C@@H](O)[C@H]3O)c[nH]c12` [PhT-ImmH], the mode of inhibition result on PaMTIP [3] is “slow-onset, tight-binding inhibition”. The Ki stood at 660 ± 90 pM at PaMTIP [3] (setting [6]) and 35 pM on PaMTIP [3] (setting [5]).

Turning to `CSCC(CO)(CO)NCc1c[nH]c2c(=O)[nH]cnc12` [MT-TrisMe-ImmH, 7-((1,3-dihydroxy-2-(methylthiomethyl)propan-2-ylamino)methyl)-3H-pyrrolo[3,2-d]pyrimidin-4(5H)-one], at PaMTIP [3] (Ki), the Ki was 19000 pM.

With `Nc1ncnc2c1ncn2[C@@H]1O[C@H](CO)[C@@H](O)[C@H]1O` [adenosine], on PaMTIP [2], the “fold decreases of Kcat/Km in comparison with those of MTI” value was found to be 750 fold; the specificity constant (kcat/Km) was 2400 M⁻¹ s⁻¹; the Km was 23 ± 1 µM; the turnover number (kcat) is 0.0549 s⁻¹ and 0.0549 ± 0.0005 s⁻¹. For the same compound, at PaMTIP [2] (Table 2), the specificity constant (kcat/Km) is 2.4 ± 0.1 × 10^3 M^−1s^−1. At PfADA, the kcat/Km is 62000 M⁻¹ s⁻¹.

As for `CSC[C@H]1CN(Cc2c[nH]c3c(=O)[nH]cnc23)C[C@@H]1O` [MT-DADMe-ImmH, (3R,4S)-1-[(9-deazahypoxanthin-9-yl)methyl]-3-hydroxy-4-(methylthiomethyl)pyrrolidine], the Ki was 900 pM at PfPNP [4]; 340 ± 20 pM on PaMTIP [3] (Ki*, second tighter binding phase of slow-onset inhibition, values ± S.E.); 800 ± 100 pM at PaMTIP [3] (setting [6]).
